Results on 25 compounds are retold here after patent US10323041B2, “Bicyclic derivatives, a process for their preparation and pharmaceutical compositions containing them” (LES LABORATOIRES SERVIER, priority 2015, dated 2019).

Each structure is given as a SMILES string.

Chain of Mcl-1 protein (Q07820 whole entry): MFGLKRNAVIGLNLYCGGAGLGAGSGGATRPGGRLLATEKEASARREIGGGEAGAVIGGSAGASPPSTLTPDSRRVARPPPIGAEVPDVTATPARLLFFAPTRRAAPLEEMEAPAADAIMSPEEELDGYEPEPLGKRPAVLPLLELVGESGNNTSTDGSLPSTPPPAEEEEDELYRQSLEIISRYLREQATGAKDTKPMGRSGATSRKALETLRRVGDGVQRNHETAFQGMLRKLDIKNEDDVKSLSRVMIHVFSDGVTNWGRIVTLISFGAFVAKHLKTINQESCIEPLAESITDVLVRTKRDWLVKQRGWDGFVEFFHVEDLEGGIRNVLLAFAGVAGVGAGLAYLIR

The first assay deals with Mcl-1 protein (Homo sapiens, UniProt Q07820). The assay is described as follows: Inhibition of Mcl-1 by the fluorescence polarisation technique. The format is binding. The following applies: @ 10 μM test compound; partial inhibitors. The protocol:
The relative binding potency of each compound was determined via fluorescence Polarisation (FP). The method utilised a Fluorescein labelled ligand Fluorescein-βAla-Ahx-[A-REIGAQLRRMADDLNAQY (SEQ ID NO: 1)]-OH; mw 2,765) which binds to the Mcl-1 protein (such that corresponds to the UniProtKB® primary accession number: Q07820) leading to an increased anisotropy measured in milli-polarisation (mP) units using a reader. The addition of a compound which binds competitively to the same site as the ligand will result in a greater proportion of unbound ligand in the system indicated by a decrease in mP units.
Method 1: An 11 point serial dilution of each compound was prepared in DMSO and 2 μl transferred into flat bottomed, low binding, 384-well plate (final DMSO concentration 5%). 38 μl of buffer (10 mM 4-(2-hydroxyethyl)-1-piperazineethanesulfonic acid [HEPES], 150 mM NaCl, 0.05% Tween 20, pH 7.4), containing the Fluorescein labelled ligand (final concentration 1 nM) and Mcl-1 protein (final concentration 5 nM) was then added.
(§1) Assay plates were incubated ˜2 hours at room temperature before FP was measured on a […] Synergy2 reader (Ex. 528 nm, Em. 640 nm, Cut off 510 nm) and mP units calculated. The binding of increasing doses of test compound was expressed as a percentage reduction in mP compared to a window established between ‘5% DMSO only’ and ‘100% inhibition’ controls. 11-point dose response curves were plotted with XL-Fit software using a 4-Parameter Logistic Model (Sigmoidal Dose-Response Model) and the inhibitory concentrations that gave a 50% reduction in mP (IC50) were determined. Results obtained using Method 1 are presented in Table 1 below; IC50 of Mcl-1 inhibition obtained using Method 1 are not underlined.
Method 2: An 11 point serial dilution of each compound was prepared in DMSO and 2 μl transferred into flat bottomed, low binding, 384-well plate (final DMSO concentration 5%). 38 μl of buffer (20 mM Na2HPO4, 1 mM EDTA, 50 mM NaCl, pH 7.4), containing the Fluorescein labelled ligand (final concentration 10 nM) and Mcl-1 protein (final concentration 10 nM) was then added.
as §1, with “inhibition’ controls (50 μM unlabelled ligand).” for “inhibition’ controls.”, “Method 2” for “Method 1”, “are” for “are not”
Background: Fluorescence polarisation rises when a labelled molecule tumbles more slowly, as on binding a larger partner.
With `CCc1sc2cccc(OC(Cc3ccccc3)C(=O)O)c2c1-c1ccc(O)c(Cl)c1C` [Example 50, (2R)-2-{[(3Ra)-3-(3-chloro-4-hydroxy-2-methylphenyl)-2-ethyl-1-benzothiophen-4-yl]oxy}-3-phenylpropanoic acid], the “percentage fluorescence polarization inhibition” value is given as 65.85% @ 10 μM. Same read-out and setting: to `COc1ccccc1C[C@@H](Oc1cccc2cc(-c3ccc(F)cc3)n(-c3ccc(OCCN4CCN(C)CC4)c(Cl)c3C)c12)C(=O)O` [Example 55] belongs 55.35% @ 10 μM.

Staying with this assay, now noted: @ 50 μM test compound; partial inhibitors.
On to `CCc1c(-c2cccc(Cl)c2C)c2c(NC(Cc3ccccc3)C(=O)O)ncnc2n1C` [Example 20, N-[(5Ra)-5-(3-chloro-2-methylphenyl)-6-ethyl-7-methyl-7H-pyrrolo[2,3-d]pyrimidin-4-yl]-D-phenylalanine], for which the “percentage fluorescence polarization inhibition” value came out at 64.8% @ 50 μM. Consider `CCc1c(-c2cccc(Cl)c2C)c2c(NC(Cc3ccccc3)C(=O)O)ncnc2n1CC1CC1` [Example 22, N-[(5Ra)-5-(3-chloro-2-methylphenyl)-7-(cyclopropylmethyl)-6-ethyl-7H-pyrrolo[2,3-d]pyrimidin-4-yl]-D-phenylalanine], for which the “percentage fluorescence polarization inhibition” value stood at 74.2% @ 50 μM.

For the compound `CCc1c(-c2cccc(Cl)c2C)c2c(NC(Cc3ccccc3)C(=O)O)ncnc2n1CC(F)(F)F` [Example 28, N-[(5Ra)-5-(3-chloro-2-methylphenyl)-6-ethyl-7-(2,2,2-trifluoroethyl)-7H-pyrrolo[2,3-d]pyrimidin-4-yl]-D-phenylalanine], the “percentage fluorescence polarization inhibition” value stood at 63.25% @ 50 μM. For `C=CCn1c(Br)c(-c2cccc(Cl)c2C)c2c(NC(Cc3ccccc3)C(=O)O)ncnc21` [Example 43, N-[6-bromo-(5Ra)-5-(3-chloro-2-methylphenyl)-7-(prop-2-en-1-yl)-7H-pyrrolo[2,3-d]pyrimidin-4-yl]-D-phenylalanine], the “percentage fluorescence polarization inhibition” value is 66.9% @ 50 μM.

The assay is the same for the next values; noted with them: @ 50 μM test compound; partial inhibitors; 50 µM.
Take `CCc1c(-c2cccc(Cl)c2C)c2c(N[C@H](Cc3ccccc3)C(=O)O)ncnc2n1C(C)C` [Example 38, N-[(5Ra)-5-(3-chloro-2-methylphenyl)-6-ethyl-7-(propan-2-yl)-7H-pyrrolo[2,3-d]pyrimidin-4-yl]-D-phenylalanine]: the “percentage fluorescence polarization inhibition” value stood at 67% @ 50 μM. `CCc1c(-c2cccc(Cl)c2C)c2c(N[C@H](Cc3ccccc3)C(=O)O)ncnc2n1C(C)C` [Example 39, N-[(5Sa)-5-(3-chloro-2-methylphenyl)-6-ethyl-7-(propan-2-yl)-7H-pyrrolo[2,3-d]pyrimidin-4-yl]-D-phenylalanine]: the “percentage fluorescence polarization inhibition” value is recorded as 77.75% @ 50 μM.

Still in this assay, the particulars now being: @ 50 μM test compound; partial inhibitors; read-out: percentage fluorescence polarization inhibition.
Consider `Cc1c(Cl)cccc1-c1c2n(c3ncnc(N[C@H](Cc4ccccc4)C(=O)O)c13)CCC2` [Example 46, N-[5-(3-chloro-2-methylphenyl)-7,8-dihydro-6H-pyrimido[5,4-b]pyrrolizin-4-yl]-D-phenylalanine], for which the inhibition (in general, the share of the control response that was lost under treatment) at 50 µM worked out at 71%.

Still in this assay, the particulars now being: Method 1 (not underlined) or Method 2 (underlined); underlining not visible; first value where cell prints two; read-out: IC50 (M) Mcl-1 FP.
Regarding `Cc1c(Cl)cccc1-c1c2n(c3ncnc(NC(Cc4ccccc4)C(=O)O)c13)CCCC2` (single isomer, unassigned) [Example 48, N-[(5Sa)-5-(3-chloro-2-methylphenyl)-6,7,8,9-tetrahydropyrimido[5,4-b]indolizin-4-yl]-D-phenylalanine], the IC50 (as a rule, the concentration that inhibits the measured activity by half) is 5.9e-06 M. Consider `COc1ccccc1-c1nccc(COc2ccccc2CC(Oc2cccc3sc(-c4ccc(F)cc4)c(-c4ccc(OCCN5CCN(C)CC5)c(Cl)c4C)c23)C(=O)O)n1` (single isomer, unassigned) [Example 52], for which the IC50 stood at 1.6e-06 M.

Regarding `COc1ccccc1-c1nccc(COc2ccccc2CC(Oc2cccc3oc(-c4ccc(F)cc4)c(-c4ccc(OCCN5CCN(C)CC5)c(Cl)c4C)c23)C(=O)O)n1` (single isomer, unassigned) [Example 63], the IC50 is 1.7e-07 M. The same measure, in the same setting: to `COc1ccccc1-c1nccc(COc2ccccc2CC(Oc2cccc3c2c(-c2ccc(OCCN4CCN(C)CC4)c(Cl)c2C)c(-c2ccc(F)cc2)n3C)C(=O)O)n1` (single isomer, unassigned) [Example 68] belongs 1.2e-06 M. The same measure, in the same setting: to `Cc1c(-c2c(-c3ccc(F)cc3)oc3ncnc(O[C@H](Cc4ccccc4OCc4ccnn4C(C)(C)C)C(=O)O)c23)ccc(OCCN(C)C)c1Cl` [Example 6, (2R)-3-{2-[(1-tert-butyl-1H-pyrazol-5-yl)methoxy]phenyl}-2-{[5-{3-chloro-4-[2-(dimethylamino)ethoxy]-2-methylphenyl}-6-(4-fluorophenyl)furo[2,3-d]pyrimidin-4-yl]oxy}propanoic acid] belongs 8.9e-09 M; to `Cn1cc(-c2cccc3ccccc23)c2c(N[C@H](Cc3ccccc3)C(=O)O)ncnc21` [Example 10, N-[7-methyl-5-(naphthalen-1-yl)-7H-pyrrolo[2,3-d]pyrimidin-4-yl]-D-phenylalanine], 1.8e-05 M; to `O=C(O)[C@@H](Cc1ccccc1)Nc1ncnc2[nH]cc(-c3cccc4ccccc34)c12` [Example 11, N-[5-(naphthalen-1-yl)-7H-pyrrolo[2,3-d]pyrimidin-4-yl]-D-phenylalanine], 3.4e-05 M. With `CCc1c(-c2cccc(Cl)c2C)c2c(NC(Cc3ccccc3)C(=O)O)ncnc2n1C` [Example 21, N-[(5Sa)-5-(3-chloro-2-methylphenyl)-6-ethyl-7-methyl-7H-pyrrolo[2,3-d]pyrimidin-4-yl]-D-phenylalanine], the concentration for half-maximal inhibition (IC50) is 8.7e-06 M. On the same count and under the same terms, to `CCc1c(-c2cccc(Cl)c2C)c2c(NC(Cc3ccccc3)C(=O)O)ncnc2n1CC1CC1` [Example 23, N-[(5Sa)-5-(3-chloro-2-methylphenyl)-7-(cyclopropylmethyl)-6-ethyl-7H-pyrrolo[2,3-d]pyrimidin-4-yl]-D-phenylalanine] belongs 6.8e-06 M; to `CCc1c(-c2cccc(Cl)c2C)c2c(NC(Cc3ccccc3)C(=O)O)ncnc2n1CC(F)(F)F` [Example 29, N-[(5Sa)-5-(3-chloro-2-methylphenyl)-6-ethyl-7-(2,2,2-trifluoroethyl)-7H-pyrrolo[2,3-d]pyrimidin-4-yl]-D-phenylalanine], 8.5e-06 M. The same measure, in the same setting: to `CCc1c(-c2ccc(OCCN3CCN(C)CC3)c(Cl)c2C)c2c(OC(Cc3ccccc3)C(=O)O)ncnc2n1Cc1ccccc1` [Example 40, (2R)-2-[(7-benzyl-(5Sa)-5-{3-chloro-2-methyl-4-[2-(4-methylpiperazin-1-yl)ethoxy]phenyl}-6-ethyl-7H-pyrrolo[2,3-d]pyrimidin-4-yl)oxy]-3-phenylpropanoic acid] belongs 8.6e-07 M; to `C=CCn1c(Br)c(-c2cccc(Cl)c2C)c2c(NC(Cc3ccccc3)C(=O)O)ncnc21` [Example 44, N-[6-bromo-(5Sa)-5-(3-chloro-2-methylphenyl)-7-(prop-2-en-1-yl)-7H-pyrrolo[2,3-d]pyrimidin-4-yl]-D-phenylalanine], 2.5e-06 M. With `Cc1c(-c2cn(Cc3ccccc3)c3ncnc(O[C@H](Cc4ccccc4)C(=O)O)c23)ccc(OCCN2CCN(C)CC2)c1Cl` [Example 45, (2R)-2-[(7-benzyl-5-{3-chloro-2-methyl-4-[2-(4-methylpiperazin-1-yl)ethoxy]phenyl}-7H-pyrrolo[2,3-d]pyrimidin-4-yl)oxy]-3-phenylpropanoic acid], the IC50 turned out to be 1.8e-06 M. Consider `CCc1sc2cccc(OC(Cc3ccccc3)C(=O)O)c2c1-c1ccc(O)c(Cl)c1C` [Example 49, (2R)-2-{[(3Sa)-3-(3-chloro-4-hydroxy-2-methylphenyl)-2-ethyl-1-benzothiophen-4-yl]oxy}-3-phenylpropanoic acid], for which the half-maximal inhibitory concentration (IC50) was found to be 3.9e-08 M. Consider `CCc1sc2cccc(CC(Cc3ccccc3)C(=O)O)c2c1-c1ccc(O)c(Cl)c1C` (centres unmarked) [Example 54, 2-benzyl-3-[3-(3-chloro-4-hydroxy-2-methylphenyl)-2-ethyl-1-benzothiophen-4-yl]propanoic acid], for which the IC50 was 1.2e-07 M.

As for `COc1ccccc1CC(Oc1cccc2cc(-c3ccc(F)cc3)n(-c3ccc(OCCN4CCN(C)CC4)c(Cl)c3C)c12)C(=O)O` (centres unmarked) [Example 56], the IC50 turned out to be 4.7e-08 M.

The assay is the same for the next values; noted with them: value after '/'; presumably the other FP method (Method 1 / Method 2); read-out: IC50 (M) Mcl-1 FP, second value of the cell.
For the compound `CCc1c(-c2ccc(OCCN3CCN(C)CC3)c(Cl)c2C)c2c(OC(Cc3ccccc3)C(=O)O)ncnc2n1Cc1ccccc1` [Example 40, (2R)-2-[(7-benzyl-(5Sa)-5-{3-chloro-2-methyl-4-[2-(4-methylpiperazin-1-yl)ethoxy]phenyl}-6-ethyl-7H-pyrrolo[2,3-d]pyrimidin-4-yl)oxy]-3-phenylpropanoic acid], the IC50 worked out at 3.3e-08 M.
